Measurements as given in the kinase profiling compilation of Christmann-Franck et al. (2016).

Columns and labels:
Test in all cases: KINOMEscan competition binding
Settings in all cases: compound 10.0 µM
[1] = target: SNRK (human) (UniProt Q9NRH2)
[2] = target: IRAK1 (human) (UniProt P51617)
[3] = target: HUNK (human) (UniProt P57058)
[4] = target: MATK (human) (UniProt P42679)
[5] = target: CDK4 CCND3 (human) (UniProt P11802+P30281)
[6] = target: HIPK2 (human) (UniProt Q9H2X6)
[7] = target: MAP3K13 (human) (UniProt O43283)
[8] = target: TIE1 (human) (UniProt P35590)
[9] = target: ERBB3 (human) (UniProt P21860)
[10] = target: DSTYK (human) (UniProt Q6XUX3)
[11] = target: GRK1 (human) (UniProt Q15835)
[12] = target: VRK2 (human) (UniProt Q86Y07)
[13] = target: STK39 (human) (UniProt Q9UEW8)
[14] = target: SIK3 (human) (UniProt Q9Y2K2)
Sequence of SIK3 (human) (Q9Y2K2 whole entry, looked up): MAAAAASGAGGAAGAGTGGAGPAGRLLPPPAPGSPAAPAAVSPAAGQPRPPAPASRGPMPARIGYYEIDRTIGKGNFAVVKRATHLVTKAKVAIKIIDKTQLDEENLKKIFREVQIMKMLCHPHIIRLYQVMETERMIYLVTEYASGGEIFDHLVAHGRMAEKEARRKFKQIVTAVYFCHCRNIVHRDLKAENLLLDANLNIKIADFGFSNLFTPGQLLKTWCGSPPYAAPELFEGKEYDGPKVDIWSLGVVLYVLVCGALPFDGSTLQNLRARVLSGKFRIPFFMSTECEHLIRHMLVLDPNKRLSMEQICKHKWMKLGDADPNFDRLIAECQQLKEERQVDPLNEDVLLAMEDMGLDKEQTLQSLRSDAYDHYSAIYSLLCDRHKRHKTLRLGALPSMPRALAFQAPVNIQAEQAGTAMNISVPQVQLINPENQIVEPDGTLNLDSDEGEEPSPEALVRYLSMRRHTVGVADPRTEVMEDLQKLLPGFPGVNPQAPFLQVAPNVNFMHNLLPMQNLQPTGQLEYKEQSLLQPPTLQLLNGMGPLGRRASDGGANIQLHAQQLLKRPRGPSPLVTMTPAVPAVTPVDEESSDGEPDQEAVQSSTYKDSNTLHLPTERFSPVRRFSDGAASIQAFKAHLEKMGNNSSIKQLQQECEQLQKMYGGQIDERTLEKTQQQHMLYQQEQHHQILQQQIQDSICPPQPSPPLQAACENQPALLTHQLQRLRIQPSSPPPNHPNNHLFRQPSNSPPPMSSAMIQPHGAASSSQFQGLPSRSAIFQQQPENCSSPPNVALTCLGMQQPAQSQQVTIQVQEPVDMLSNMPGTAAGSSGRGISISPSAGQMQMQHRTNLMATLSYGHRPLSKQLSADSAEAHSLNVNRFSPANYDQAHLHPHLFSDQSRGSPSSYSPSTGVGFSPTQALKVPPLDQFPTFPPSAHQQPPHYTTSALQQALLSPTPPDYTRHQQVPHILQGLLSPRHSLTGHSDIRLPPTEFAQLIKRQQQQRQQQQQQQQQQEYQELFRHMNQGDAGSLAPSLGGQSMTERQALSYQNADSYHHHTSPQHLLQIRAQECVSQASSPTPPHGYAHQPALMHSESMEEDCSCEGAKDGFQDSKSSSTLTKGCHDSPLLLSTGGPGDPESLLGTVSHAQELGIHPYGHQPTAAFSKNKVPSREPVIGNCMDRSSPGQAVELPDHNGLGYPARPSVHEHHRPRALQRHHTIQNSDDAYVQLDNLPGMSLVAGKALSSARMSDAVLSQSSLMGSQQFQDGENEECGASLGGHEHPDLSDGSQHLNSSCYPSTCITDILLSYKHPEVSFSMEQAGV

[15] = target: NEK3 (human) (UniProt P51956)
[16] = target: TRPM6 (human) (UniProt Q9BX84)
[17] = target: TAOK2 (human) (UniProt Q9UL54)
[18] = target: EGFR (human) (UniProt P00533)
[19] = target: PIP5K1C (human) (UniProt O60331)
[20] = target: ICK (human) (UniProt Q9UPZ9)
[21] = target: HIPK4 (human) (UniProt Q8NE63)
Sequence of HIPK4 (human) (Q8NE63 whole entry, looked up): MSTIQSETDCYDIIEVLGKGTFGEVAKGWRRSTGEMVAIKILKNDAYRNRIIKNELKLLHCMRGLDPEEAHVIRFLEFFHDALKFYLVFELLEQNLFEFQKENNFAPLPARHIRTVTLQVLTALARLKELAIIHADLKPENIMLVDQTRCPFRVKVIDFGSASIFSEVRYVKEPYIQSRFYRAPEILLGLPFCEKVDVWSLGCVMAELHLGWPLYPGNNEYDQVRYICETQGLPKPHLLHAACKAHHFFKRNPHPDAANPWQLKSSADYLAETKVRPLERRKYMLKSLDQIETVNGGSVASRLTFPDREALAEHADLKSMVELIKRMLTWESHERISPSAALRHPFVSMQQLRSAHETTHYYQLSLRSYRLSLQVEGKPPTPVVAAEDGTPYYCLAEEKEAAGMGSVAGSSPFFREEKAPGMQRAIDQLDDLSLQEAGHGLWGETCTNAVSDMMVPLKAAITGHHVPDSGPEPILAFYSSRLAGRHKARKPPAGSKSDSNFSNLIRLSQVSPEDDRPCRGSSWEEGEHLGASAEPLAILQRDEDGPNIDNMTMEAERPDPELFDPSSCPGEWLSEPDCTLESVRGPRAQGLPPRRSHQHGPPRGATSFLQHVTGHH

[22] = target: LRRK2 (human) (UniProt Q5S007)
[23] = target: GRK4 (human) (UniProt P32298)
Sequence of GRK4 (human) (P32298 whole entry, looked up): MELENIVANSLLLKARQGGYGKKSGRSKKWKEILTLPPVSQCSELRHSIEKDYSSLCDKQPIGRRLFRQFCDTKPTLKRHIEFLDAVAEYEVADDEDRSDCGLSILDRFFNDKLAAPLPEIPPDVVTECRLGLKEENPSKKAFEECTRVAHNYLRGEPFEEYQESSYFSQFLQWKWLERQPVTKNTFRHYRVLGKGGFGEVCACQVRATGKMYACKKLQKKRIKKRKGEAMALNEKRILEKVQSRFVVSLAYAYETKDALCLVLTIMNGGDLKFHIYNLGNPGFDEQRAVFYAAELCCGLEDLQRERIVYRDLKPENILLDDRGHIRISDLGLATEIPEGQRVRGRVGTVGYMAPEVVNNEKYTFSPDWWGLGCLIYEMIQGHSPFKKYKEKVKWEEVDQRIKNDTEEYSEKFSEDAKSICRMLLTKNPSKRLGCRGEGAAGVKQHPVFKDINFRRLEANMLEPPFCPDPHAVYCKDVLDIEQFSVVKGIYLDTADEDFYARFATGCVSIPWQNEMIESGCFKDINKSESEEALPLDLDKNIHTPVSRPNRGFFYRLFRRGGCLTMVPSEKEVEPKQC

[24] = target: NEK11 (human) (UniProt Q8NG66)
Sequence of NEK11 (human) (Q8NG66 whole entry, looked up): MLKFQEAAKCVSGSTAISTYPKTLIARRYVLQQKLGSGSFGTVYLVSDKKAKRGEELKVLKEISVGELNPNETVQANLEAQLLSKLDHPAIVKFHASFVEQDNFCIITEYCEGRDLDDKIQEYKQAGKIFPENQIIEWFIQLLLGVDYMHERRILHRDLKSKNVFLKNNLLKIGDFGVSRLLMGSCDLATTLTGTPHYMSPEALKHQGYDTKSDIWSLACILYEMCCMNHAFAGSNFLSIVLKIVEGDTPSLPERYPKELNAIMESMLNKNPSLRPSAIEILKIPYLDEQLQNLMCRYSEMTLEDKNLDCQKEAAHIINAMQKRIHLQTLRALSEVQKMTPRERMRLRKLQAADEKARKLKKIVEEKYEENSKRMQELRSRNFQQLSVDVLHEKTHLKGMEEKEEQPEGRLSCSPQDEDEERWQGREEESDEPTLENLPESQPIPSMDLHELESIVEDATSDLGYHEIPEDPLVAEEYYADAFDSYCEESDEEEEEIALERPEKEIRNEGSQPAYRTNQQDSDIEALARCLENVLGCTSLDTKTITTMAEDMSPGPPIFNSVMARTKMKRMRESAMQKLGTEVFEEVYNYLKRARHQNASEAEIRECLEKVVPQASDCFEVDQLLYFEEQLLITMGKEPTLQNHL

[25] = target: ERN1 (human) (UniProt O75460)
[26] = target: EPHB6 (human) (UniProt O15197)
[27] = test system: ABL1 (human), P00519 [E255K]
[28] = target: CDKL1 (human) (UniProt Q00532)
Sequence of CDKL1 (human) (Q00532 whole entry, looked up): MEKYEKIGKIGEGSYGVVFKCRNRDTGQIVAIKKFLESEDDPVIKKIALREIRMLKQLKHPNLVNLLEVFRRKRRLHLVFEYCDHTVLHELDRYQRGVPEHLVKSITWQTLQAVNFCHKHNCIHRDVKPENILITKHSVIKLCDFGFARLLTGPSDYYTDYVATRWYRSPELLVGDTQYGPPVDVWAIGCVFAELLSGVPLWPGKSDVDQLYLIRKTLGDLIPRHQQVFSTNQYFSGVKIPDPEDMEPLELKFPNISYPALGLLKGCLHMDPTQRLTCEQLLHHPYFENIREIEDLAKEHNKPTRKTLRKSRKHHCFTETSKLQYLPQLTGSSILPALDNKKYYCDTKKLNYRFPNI

[29] = target: CSNK1A1 (human) (UniProt P48729)
[30] = target: MET (human) (UniProt P08581)
[31] = target: ROCK1 (human) (UniProt Q13464)
Sequence of ROCK1 (human) (Q13464 whole entry, looked up): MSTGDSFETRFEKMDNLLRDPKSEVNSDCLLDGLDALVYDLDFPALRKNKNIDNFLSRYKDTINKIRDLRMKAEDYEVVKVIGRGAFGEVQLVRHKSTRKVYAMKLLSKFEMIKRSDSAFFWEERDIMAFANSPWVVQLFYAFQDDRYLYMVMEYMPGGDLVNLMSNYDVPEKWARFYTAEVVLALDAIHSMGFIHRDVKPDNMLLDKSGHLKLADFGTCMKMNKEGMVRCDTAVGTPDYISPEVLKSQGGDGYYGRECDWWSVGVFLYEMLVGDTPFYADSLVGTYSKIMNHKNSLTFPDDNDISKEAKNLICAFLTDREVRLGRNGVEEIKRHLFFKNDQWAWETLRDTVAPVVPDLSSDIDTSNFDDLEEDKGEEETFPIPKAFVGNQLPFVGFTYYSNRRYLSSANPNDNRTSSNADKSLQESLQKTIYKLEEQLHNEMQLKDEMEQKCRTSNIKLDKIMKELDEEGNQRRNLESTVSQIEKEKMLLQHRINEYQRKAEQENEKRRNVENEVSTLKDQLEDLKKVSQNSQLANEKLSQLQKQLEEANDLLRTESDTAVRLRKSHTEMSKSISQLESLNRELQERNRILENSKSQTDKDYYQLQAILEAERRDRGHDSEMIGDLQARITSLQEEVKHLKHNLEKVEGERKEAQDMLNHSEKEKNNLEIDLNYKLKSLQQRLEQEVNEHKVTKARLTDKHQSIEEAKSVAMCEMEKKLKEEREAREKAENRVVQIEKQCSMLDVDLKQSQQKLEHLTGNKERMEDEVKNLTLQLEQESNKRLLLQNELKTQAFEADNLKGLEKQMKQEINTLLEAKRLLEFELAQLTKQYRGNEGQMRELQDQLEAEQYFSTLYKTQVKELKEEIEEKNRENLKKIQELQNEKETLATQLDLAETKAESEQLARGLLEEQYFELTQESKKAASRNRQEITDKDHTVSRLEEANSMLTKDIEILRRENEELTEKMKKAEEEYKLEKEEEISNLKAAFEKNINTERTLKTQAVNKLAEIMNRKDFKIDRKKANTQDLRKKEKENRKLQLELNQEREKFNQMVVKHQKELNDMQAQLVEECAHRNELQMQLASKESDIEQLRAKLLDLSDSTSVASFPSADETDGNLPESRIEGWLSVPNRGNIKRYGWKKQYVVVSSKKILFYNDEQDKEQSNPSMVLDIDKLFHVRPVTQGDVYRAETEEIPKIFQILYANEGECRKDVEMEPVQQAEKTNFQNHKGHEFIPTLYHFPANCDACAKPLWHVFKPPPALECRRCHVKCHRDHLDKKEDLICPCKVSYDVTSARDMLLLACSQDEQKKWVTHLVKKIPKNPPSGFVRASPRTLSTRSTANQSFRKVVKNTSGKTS

[32] = target: MAP3K1 (human) (UniProt Q13233)
[33] = target: MAP3K2 (human) (UniProt Q9Y2U5)
[34] = target: HIPK3 (human) (UniProt Q9H422)
[35] = target: PI4KB (human) (UniProt Q9UBF8)
[36] = target: PIK3CA (human) (UniProt P42336)
[37] = target: PIK3C2G (human) (UniProt O75747)
[38] = test system: PIK3CA (human), P42336 [E545K]
[39] = target: PIK3CG (human) (UniProt P48736)
[40] = test system: PIK3CA (human), P42336 [E545A]

`Nc1ccc(-c2ccc3ncc4ccc(=O)n(-c5cccc(C(F)(F)F)c5)c4c3c2)cn1` was tested, and the kinase still bound, per cent of control [1] was 100%, the kinase still bound, per cent of control [2] was 84% and the kinase still bound, per cent of control [3] was 100%. It also gave a kinase still bound, per cent of control [4] of 100%, a kinase still bound, per cent of control [5] of 90% and a kinase still bound, per cent of control [6] of 53%. For the same compound, the kinase still bound, per cent of control [7] was 100%, the kinase still bound, per cent of control [8] was 100% and the kinase still bound, per cent of control [9] was 50%. It also gave a kinase still bound, per cent of control [10] of 88%, a kinase still bound, per cent of control [11] of 100% and a kinase still bound, per cent of control [12] of 100%. It also gave a kinase still bound, per cent of control [13] of 100%, a kinase still bound, per cent of control [14] of 79% and a kinase still bound, per cent of control [15] of 95%. It also gave a kinase still bound, per cent of control [16] of 71%, a kinase still bound, per cent of control [17] of 92% and a kinase still bound, per cent of control [18] of 100%. For the same compound, the kinase still bound, per cent of control [19] was 51%, the kinase still bound, per cent of control [20] was 79% and the kinase still bound, per cent of control [21] was 44%. For the same compound, the kinase still bound, per cent of control [22] was 80%, the kinase still bound, per cent of control [23] was 92% and the kinase still bound, per cent of control [24] was 80%. The kinase still bound, per cent of control [25] was 100%, the kinase still bound, per cent of control [26] was 82% and the kinase still bound, per cent of control [27] was 76%. It also gave a kinase still bound, per cent of control [28] of 97%, a kinase still bound, per cent of control [29] of 94% and a kinase still bound, per cent of control [30] of 100%. It also gave a kinase still bound, per cent of control [31] of 79%, a kinase still bound, per cent of control [32] of 100% and a kinase still bound, per cent of control [33] of 78%. The kinase still bound, per cent of control [34] was 92%.
With `COc1cc(N2CCN(C)CC2)ccc1Nc1nc(N)c(C(=O)c2c(Cl)cccc2Cl)s1` the kinase still bound, per cent of control [1] was 82%, the kinase still bound, per cent of control [2] was 92% and the kinase still bound, per cent of control [3] was 100%. For the same compound, the kinase still bound, per cent of control [4] was 61%, the kinase still bound, per cent of control [6] was 66% and the kinase still bound, per cent of control [35] was 100%. For the same compound, the kinase still bound, per cent of control [7] was 100%, the kinase still bound, per cent of control [8] was 100% and the kinase still bound, per cent of control [9] was 50%. For the same compound, the kinase still bound, per cent of control [10] was 52%, the kinase still bound, per cent of control [11] was 100% and the kinase still bound, per cent of control [12] was 100%. For the same compound, the kinase still bound, per cent of control [13] was 66%, the kinase still bound, per cent of control [14] was 76% and the kinase still bound, per cent of control [15] was 89%. The kinase still bound, per cent of control [16] was 5.2%, the kinase still bound, per cent of control [17] was 8.2% and the kinase still bound, per cent of control [18] was 100%. It also gave a kinase still bound, per cent of control [36] of 99%, a kinase still bound, per cent of control [19] of 85% and a kinase still bound, per cent of control [20] of 7.4%. It also gave a kinase still bound, per cent of control [21] of 24%, a kinase still bound, per cent of control [22] of 81% and a kinase still bound, per cent of control [37] of 100%. The kinase still bound, per cent of control [23] was 85%, the kinase still bound, per cent of control [38] was 100% and the kinase still bound, per cent of control [24] was 65%. It also gave a kinase still bound, per cent of control [25] of 99%, a kinase still bound, per cent of control [26] of 63% and a kinase still bound, per cent of control [27] of 90%. The kinase still bound, per cent of control [28] was 88%, the kinase still bound, per cent of control [29] was 84% and the kinase still bound, per cent of control [30] was 100%. The kinase still bound, per cent of control [31] was 79%, the kinase still bound, per cent of control [32] was 100% and the kinase still bound, per cent of control [33] was 79%. For the same compound, the kinase still bound, per cent of control [34] was 99%, the kinase still bound, per cent of control [39] was 86% and the kinase still bound, per cent of control [40] was 100%.
`CCCS(=O)(=O)Nc1ccc(F)c(C(=O)c2c[nH]c3ncc(-c4ccc(Cl)cc4)cc23)c1F` showed a kinase still bound, per cent of control [1] of 100%, a kinase still bound, per cent of control [2] of 99% and a kinase still bound, per cent of control [3] of 9.1%. It also gave a kinase still bound, per cent of control [4] of 100%, a kinase still bound, per cent of control [5] of 82% and a kinase still bound, per cent of control [6] of 66%. The kinase still bound, per cent of control [35] was 0.7%, the kinase still bound, per cent of control [7] was 100% and the kinase still bound, per cent of control [8] was 38%. The kinase still bound, per cent of control [9] was 73%, the kinase still bound, per cent of control [10] was 22% and the kinase still bound, per cent of control [11] was 100%. It also gave a kinase still bound, per cent of control [12] of 100%, a kinase still bound, per cent of control [13] of 100% and a kinase still bound, per cent of control [14] of 100%. It also gave a kinase still bound, per cent of control [16] of 100%, a kinase still bound, per cent of control [17] of 53% and a kinase still bound, per cent of control [18] of 70%. It also gave a kinase still bound, per cent of control [36] of 94%, a kinase still bound, per cent of control [19] of 44% and a kinase still bound, per cent of control [20] of 73%. It also gave a kinase still bound, per cent of control [22] of 59%, a kinase still bound, per cent of control [37] of 62% and a kinase still bound, per cent of control [23] of 100%. It also gave a kinase still bound, per cent of control [38] of 100%, a kinase still bound, per cent of control [25] of 82% and a kinase still bound, per cent of control [26] of 5.8%. The kinase still bound, per cent of control [28] was 100%, the kinase still bound, per cent of control [29] was 90% and the kinase still bound, per cent of control [30] was 53%. The kinase still bound, per cent of control [31] was 85%, the kinase still bound, per cent of control [32] was 91% and the kinase still bound, per cent of control [33] was 100%. For the same compound, the kinase still bound, per cent of control [34] was 100%, the kinase still bound, per cent of control [39] was 19% and the kinase still bound, per cent of control [40] was 95%.
`CCC(=O)N1CCN(c2ccc(-n3c(=O)ccc4cnc5ccc(-c6cnc7ccccc7c6)cc5c43)cc2C(F)(F)F)CC1` was tested, and the kinase still bound, per cent of control [1] was 60%, the kinase still bound, per cent of control [2] was 100% and the kinase still bound, per cent of control [3] was 91%. It also gave a kinase still bound, per cent of control [4] of 97%, a kinase still bound, per cent of control [5] of 87% and a kinase still bound, per cent of control [6] of 58%. It also gave a kinase still bound, per cent of control [35] of 96%, a kinase still bound, per cent of control [7] of 100% and a kinase still bound, per cent of control [8] of 100%. For the same compound, the kinase still bound, per cent of control [9] was 44%, the kinase still bound, per cent of control [10] was 28% and the kinase still bound, per cent of control [11] was 99%. The kinase still bound, per cent of control [12] was 100%, the kinase still bound, per cent of control [13] was 100% and the kinase still bound, per cent of control [14] was 89%. The kinase still bound, per cent of control [15] was 100%, the kinase still bound, per cent of control [16] was 100% and the kinase still bound, per cent of control [17] was 84%. The kinase still bound, per cent of control [18] was 85%, the kinase still bound, per cent of control [19] was 80% and the kinase still bound, per cent of control [20] was 100%. For the same compound, the kinase still bound, per cent of control [21] was 4.6%, the kinase still bound, per cent of control [22] was 81% and the kinase still bound, per cent of control [37] was 11%. For the same compound, the kinase still bound, per cent of control [23] was 90%, the kinase still bound, per cent of control [38] was 0.6% and the kinase still bound, per cent of control [24] was 65%. It also gave a kinase still bound, per cent of control [25] of 100%, a kinase still bound, per cent of control [26] of 80% and a kinase still bound, per cent of control [28] of 100%. The kinase still bound, per cent of control [30] was 84%, the kinase still bound, per cent of control [31] was 53% and the kinase still bound, per cent of control [32] was 92%. It also gave a kinase still bound, per cent of control [33] of 62%, a kinase still bound, per cent of control [34] of 86% and a kinase still bound, per cent of control [40] of 1%.
